Measured values as given in patent publication US20020107245A1, “Method for treating fibrotic diseases or other indications IVC” (priority 2000, published 2002).
Structures can show the parent of a compound that is named as a salt.

Columns and labels:
Type IV collagen = assay: In situ hybridization studies
Excerpt: (§1) Cardiovascular risk correlates more closely with the systolic and the pulse pressure than with the diastolic pressure. In diabetic patients, the cardiovascular risk profile of diabetic patients is strongly correlated to duration of diabetes, glycemic control and blood pressure. Structural matrix proteins contribute to the function of vessels and the heart, and changes in the physical behavior of cardiovascular walls are believed to be important determinants of circulatory function. In elderly individuals, the loss of compliance in the aorta leads to isolated systolic hypertension, which in turn expands the arterial wall and thereby diminishes the dynamic range of elasticity. […] Treatment with 3-[2-phenyl-2-oxoethyl]-4,5-dimethyl-thiazolium salt lead to a reduction in the mass of collagen in cardiovascular tissues.

TGFbeta = assay: In situ hybridization studies
Excerpt: as §1

[1] = test system: rodents, canines and primates; assay: In vivo studies of vascular stiffening and collagen mass in cardiovascular tissues
Excerpt: as §1

Rats = assay: Rat left anterior descending coronary artery ligation, histological examination of hearts; format: in vivo; details: 10 mg/kg daily intraperitoneal for 30 days before ligation and 14 days after
Procedure: Rats received a daily intraperitoneal dose of 10 mg/kg 3-[2-phenyl-2-oxoethyl]-4,5-dimethyl-thiazolium salt (compound A) (n=14) or placebo (n=15) for 30 days. The animals then underwent a thoracotomy and the left anterior descending coronary artery ligated. The chest was then closed and the animals allowed to recover for 14 days while continuing to be treated with compound A or placebo. The animals were then sacrificed and the hearts removed for histological examination. The weight of the infarcted tissue was 0.16±0.04 g for the placebo treated animals compared to 0.11±0.05 g for the compound A treated animals (p=0.04).

[2] = test system: elderly patients with pulse pressures greater than 60 mm Hg; assay: Phase Ia clinical trial; format: in vivo, human
Excerpt: When the heart pumps blood into the vascular system, the ability of the arteries to expand helps to push blood through the body. When arteries become stiff, as they do in the natural process of aging, the ability of the arteries to expand is diminished and also has consequences for the heart. The heart has to work harder to pump the blood into the stiff arteries, and eventually hypertrophies (enlarges in size) to accomplish this. A hypertrophied heart is an inefficient pump, and is one of the disorders that leads to congestive heart failure. […] The potential clinical benefit of this is to lessen the effort that the heart must expend to push blood throughout the body. The effect is also believed to contribute to preventing hypertrophy and subsequent inefficiency of the heart, which inefficiency would contribute to congestive heart failure.
Atherosclerosis is a disease that involves deposition of blood lipids in plaque in the arteries throughout the body. In coronary arteries, accumulation of plaque progressively leads to reduced coronary flow, with occlusion of the arteries causing focal death of cardiac tissue (myocardial infarction, heart attack). If the amount of tissue that dies is large enough, death ensures. […]

dog model for diabetes = assay: Dog model for diabetes, indicators of ventricular elasticity; format: in vivo
Excerpt: as §1

In the case of `Cc1sc[n+](CC(=O)c2ccccc2)c1C` [compound A, 3-[2-phenyl-2-oxoethyl]-4,5-dimethyl-thiazolium salt], the “expression of Type IV collagen” value (Type IV collagen) is reported as “reduces”, the “expression of TGFbeta” value (TGFbeta) is reported as “reduces” and the “mass of collagen in cardiovascular tissues” value ([1]; in vivo) is reported as “reduction”. The vascular stiffening ([1]; in vivo studies in rodents, canines and primates) was “substantially ameliorating vascular stiffening”, the “thickness of the ventricular wall in the infarcted zone” value (Rats) was 2.56±0.22 mm and the “weight of the infarcted tissue” value (Rats) was 0.11 ± 0.05 g. The “stiffness of arteries, as measured by the ratio of stroke volume (ml) to pulse pressure (mm Hg)” value ([2]; Phase Ia clinical trial) was “showed an ability to reverse the stiffness of arteries”, the pulse pressure ([2]; Phase Ia trial, elderly patients with pulse pressures greater than 60 mm Hg) was “reduced” and the end diastolic pressure (dog model for diabetes) was “returned to a value at about the mid-point between the disease impaired value and the value for control dogs”. For the same molecule, the end diastolic volume (dog model for diabetes) was “returned to a value at about the mid-point between the disease impaired value and the value for control dogs”.
